This assay deals with Bacillus subtilis spores. It is filed as binding.

Where “and” joins values, the source holds several entries; their conditions need not be identical. Identical values can stand only once.

The record followed here is patent US8748173B2 (priority 1998, dated 2014).

With “Peptide 7183 consensus (RFTISRDNAKNTLYLQMSC; Peptide 7183 artificial peptide corresponding to consensus sequence in 7183 VH gene family.) [reference compound]”, the “concentration at which the peptide stained spores” value is 200 μg/ml and 100 μM.

Regarding “Peptide Anti-spore (RFTISRDNPKNTLFLQMTC; Peptide Anti-spore artificial peptide corresponding to consensus sequence in the framework 3 region of antibodies against Bacillus subtilis spores.)”, the “binding to B. subtilis spores” value was “bind strongly and specifically”; the “concentration at which the peptide stained spores” value was 2 μg/ml and 1 μM.
